The values below are quoted from earlier work in patent publication US12662501B2, “Transcriptome In Vivo Analysis (TIVA) and Transcriptome In Situ Analysis (TISA)” (The Trustees of the University of Pennsylvania, priority 2014, dated 2026).

The conditions of data set [1]: for Eop: 1MLCT Ru→bpy(π1*) transition; for λmax: 1MLCT band.

Structures are written as SMILES.

For the compound `C=CCn1cnnc1` [4-ally1-1,2,4-triazole], in data set [1], the Eop is 21190 cm⁻¹ and the λmax is recorded as 472 nm.
Regarding `CC(=O)c1ccncc1.CC(=O)c1ccncc1.[Ru+2].c1ccc(-c2ccccn2)nc1.c1ccc(-c2ccccn2)nc1` [(4-AcPyr)2], in data set [1], the Eop was 22620 cm⁻¹ and the λmax is on record as 442 nm.
As for `CCSC.CCSC.[Ru+2].c1ccc(-c2ccccn2)nc1.c1ccc(-c2ccccn2)nc1` [(MeSEt)2], in data set [1], the Eop is 23697 cm⁻¹ and the λmax is 422 nm.
Consider `CSc1ccccc1.CSc1ccccc1.[Ru+2].c1ccc(-c2ccccn2)nc1.c1ccc(-c2ccccn2)nc1` [(MeSPh)2], for which, in data set [1], the Eop was 24752 cm⁻¹ and the λmax was 404 nm.
In the case of `Cn1ccnc1.Cn1ccnc1.[Ru+2].c1ccc(-c2ccccn2)nc1.c1ccc(-c2ccccn2)nc1` [(N-MeIm)2], in data set [1], the Eop is 20700 cm⁻¹ and the λmax is given as 483 nm.
For `N.N.[Ru+2].c1ccc(-c2ccccn2)nc1.c1ccc(-c2ccccn2)nc1` [(NH3)2], in data set [1], the Eop was 20410 cm⁻¹ and the λmax was 490 nm.
For the compound `[Ru+2].c1ccc(-c2ccccn2)nc1.c1ccc(-c2ccccn2)nc1.c1ccc(P(c2ccccc2)c2ccccc2)cc1.c1ccc(P(c2ccccc2)c2ccccc2)cc1` [(PPh3)2], in data set [1], the Eop was 23870 cm⁻¹ and the λmax is recorded as 419 nm.
With `[Ru+2].c1ccc(-c2ccccn2)nc1.c1ccc(-c2ccccn2)nc1.c1ccncc1.c1ccncc1` [(Pyr)2], in data set [1], the Eop was 21980 cm⁻¹ and the λmax was 455 nm.
With `F[P-](F)(F)(F)(F)F.NCCCC(=O)[O-].[Ru+2].c1ccc(-c2ccccn2)nc1.c1ccc(-c2ccccn2)nc1.c1ccc(P(c2ccccc2)c2ccccc2)cc1` [RuBi-caged GABA], the ε (1P, 424 nm) is 6400 M⁻¹ cm⁻¹. In addition, for the setting “RuBi-caged GABA”, the Φ is on record as 0.2. Besides, the εΦ (RuBi-caged GABA, 1P, 424 nm) is given as 1280.
